The test system of series [1] is Hs-578T. Nature of the series: Cytotoxicity against human Hs-578T cells assessed as inhibition of cell growth incubated for 72 hrs by SRB assay. Format: functional, cell-based.
Series [2] can be described thus: Cytotoxicity against human MCF-10A cells assessed as inhibition of cell growth incubated for 72 hrs by SRB assay. Format: toxicity, cell-based. (In general: In SRB staining, fixed cells bind dye roughly in proportion to their protein.)
The species entered for series [3] is Homo sapiens. Nature of the series: Selectivity index, ratio of IC50 for human MCF-10A cells to IC50 for human Hs-578T cells.
Series [4] deals with Hs-578T. Kind of series: Induction of apoptosis in human Hs-578T cells assessed as increase in cleaved PARP level at IC50 measured after 48 hrs by Western blot analysis. The class given is functional, cell-based. In general terms: A western blot detects proteins with antibodies after separation by electrophoresis.
Series [5] relates to Hs-578T. Nature of the series: Induction of apoptosis in human Hs-578T cells assessed as increase in caspase-8 protein expression at IC50 measured after 24 hrs by Western blot analysis. The class given is functional, cell-based.
Series [6] deals with Hs-578T. Kind of series: Induction of apoptosis in human Hs-578T cells assessed as increase in caspase-8 protein expression at IC50 measured after 48 hrs by Western blot analysis. Format: functional, cell-based.
Series [7] relates to Hs-578T. Kind of series: Induction of apoptosis in human Hs-578T cells assessed as increase in caspase-9 protein expression at IC50 measured after 24 to 48 hrs by Western blot analysis. Format: functional, cell-based. Conditions: time 24-48 hrs.
Series [8] concerns Hs-578T. Kind of series: Induction of apoptosis in human Hs-578T cells assessed as increase in BID protein expression at IC50 measured after 24 to 48 hrs by Western blot analysis. To be noted: time 24-48 hrs. Format: functional, cell-based.
For series [9], the system named is Hs-578T. Nature of the series: Induction of apoptosis in human Hs-578T cells assessed as increase in BAD protein expression at IC50 measured after 24 to 48 hrs by Western blot analysis. The class given is functional, cell-based. To be noted: time 24-48 hrs.
In series [10] the test system is Hs-578T. Kind of series: Cytotoxicity against human Hs-578T cells assessed as cell viability at 10 uM incubated for 72 hrs by SRB assay relative to control. Format: functional. To be noted: read-out: Activity.
Series [11] concerns Hs-578T. Nature of the series: Cytotoxicity against human Hs-578T cells assessed as cell viability at 30 uM incubated for 72 hrs by SRB assay relative to control. Format: functional. To be noted: read-out: Activity.
In series [12] the test system is MDA-MB-231. Kind of series: Cytotoxicity against human MDA-MB-231 cells assessed as cell viability at 10 uM incubated for 72 hrs by SRB assay relative to control. The class given is functional. Conditions: read-out: Activity.
Series [13] relates to MDA-MB-231. Nature of the series: Cytotoxicity against human MDA-MB-231 cells assessed as cell viability at 30 uM incubated for 72 hrs by SRB assay relative to control. Format: functional. To be noted: read-out: Activity.
The subject of series [14] is MCF7. Nature of the series: Cytotoxicity against human MCF7 cells assessed as cell viability at 10 uM incubated for 72 hrs by SRB assay relative to control. Format: functional. To be noted: read-out: Activity.
Series [15] deals with MCF7. Kind of series: Cytotoxicity against human MCF7 cells assessed as cell viability at 30 uM incubated for 72 hrs by SRB assay relative to control. The class given is functional. Conditions: read-out: Activity.
For series [16], the system named is Hs-578T. Kind of series: Cytotoxicity against human Hs-578T cells assessed as reduction in cell viability at 10 uM incubated for 72 hrs by SRB assay relative to control. The class given is functional.
The subject of series [17] is Hs-578T. Kind of series: Cytotoxicity against human Hs-578T cells assessed as reduction in cell proliferation at 0.5 times IC50 measured after 24 hrs by BrdU incorporation assay relative to control. The class given is functional. On the set-up: scale not given: the % may be the effect or the level left. In general terms: Uptake of a labelled nucleoside into DNA is a usual measure of proliferation.

Series [18] concerns Hs-578T. Nature of the series: Cytotoxicity against human Hs-578T cells assessed as reduction in cell proliferation at IC50 measured after 24 hrs by BrdU incorporation assay relative to control. The class given is functional. On the set-up: scale not given: the % may be the effect or the level left.
Series [19] concerns Hs-578T. Kind of series: Cytotoxicity against human Hs-578T cells assessed as reduction in cell proliferation at 0.5 times IC50 measured after 48 hrs by BrdU incorporation assay relative to control. On the set-up: scale not given: the % may be the effect or the level left. Format: functional.
Series [20] has as its system Hs-578T. Kind of series: Cytotoxicity against human Hs-578T cells assessed as reduction in cell proliferation at IC50 measured after 48 hrs by BrdU incorporation assay relative to control. The class given is functional. Further details: scale not given: the % may be the effect or the level left.
Series [21] relates to Hs-578T. Kind of series: Induction of apoptosis in human Hs-578T cells assessed as increase in cleaved PARP level at IC50 measured after 24 to 48 hrs by Western blot analysis. Format: functional, cell-based. To be noted: time 24-48 hrs.
The subject of series [22] is Hs-578T. Kind of series: Induction of apoptosis in human Hs-578T cells assessed as reduction in viable cells at IC50 measured after 24 to 48 hrs by Annexin V-FITC/PI staining based flow cytometry analysis. The class given is functional, cell-based. To be noted: time 24-48 hrs.
In series [23] the test system is Hs-578T. Kind of series: Induction of apoptosis in human Hs-578T cells assessed as increase in early apoptotic cells at IC50 measured after 24 to 48 hrs by Annexin V-FITC/PI staining based flow cytometry analysis. Format: functional, cell-based. To be noted: time 24-48 hrs.
Series [24] has as its system Hs-578T. Nature of the series: Induction of apoptosis in human Hs-578T cells assessed as increase in late apoptotic cells at IC50 measured after 24 hrs by Annexin V-FITC/PI staining based flow cytometry analysis. The class given is functional, cell-based.
In series [25] the test system is Hs-578T. Kind of series: Induction of cell cycle arrest in human Hs-578T cells assessed as reduction in G0/G1 cell population at IC50 measured after 24 to 48 hrs by RNase/PI staining based flow cytometry analysis. Format: functional. To be noted: time 24-48 hrs.
The subject of series [26] is Hs-578T. Nature of the series: Induction of cell cycle arrest in human Hs-578T cells assessed as accumulation of cells at S phase at IC50 measured after 24 hrs by RNase/PI staining based flow cytometry analysis. Format: functional.
The subject of series [27] is Hs-578T. Nature of the series: Induction of cell cycle arrest in human Hs-578T cells assessed as accumulation of cells at G2/M phase at IC50 measured after 24 hrs by RNase/PI staining based flow cytometry analysis. The class given is functional.
Series [28] has as its system Hs-578T. Nature of the series: Induction of cell cycle arrest in human Hs-578T cells assessed as accumulation of cells at S phase at IC50 measured after 48 hrs by RNase/PI staining based flow cytometry analysis. Format: functional.
A short description of series [29]: Toxicity in wild type Caenorhabditis elegans N2 assessed as effect on food consumption at 0.0001 to 50 uM measured daily for 7 days by food clearance assay. Conditions: 168 h, dose 0.0001-50 µM, time 7 day.
Series [30] is described as follows: Toxicity in wild type Caenorhabditis elegans N2 assessed as drug tolerance at 0.0001 to 50 uM. To be noted: dose 0.0001-50 µM.
In series [31] the test system is Hs-578T. Nature of the series: Antitumor activity against human Hs-578T cells implanted in chick eggs assessed as tumor growth regression at 2 times IC50 administered starting from day 13 and measured 17 days post embryo development by stereomicroscopic analysis. Format: functional, cell-based. To be noted: time 5.0 day.
Series [32] has as its system Hs-578T. Nature of the series: Antitumor activity against human Hs-578T cells implanted in chick eggs assessed as regression in tumors' perimeter at 2 times IC50 administered starting from day 13 and measured 17 days post embryo development by stereomicroscopic analysis relative to control. To be noted: time 5 day. The class given is functional.

Activity calls are given as the source filed them. The calls are words filed in the database; no cut-off is given here.

In general, IC50 refers to the point on the concentration scale where inhibition reaches its midpoint.

Regarding `O=c1c(O)c(-c2ccc(O)c(O)c2)oc2cc(O)cc(O)c12` [QUERCETIN], the 50% inhibitory concentration (IC50) in series [1] worked out at 50.5 µM. Moreover, the IC50 at 72 h in series [2] amounted to 9.32 µM. In series [3], the Ratio IC50 was found to be 0.82.

`COc1cccc2c1Oc1nc(-c3cc(C(C)(C)C)c(O)c(C(C)(C)C)c3)[nH]c(=O)c1C2`: the IC50 in series [1] was 9.08 µM. Moreover, in [2], the 50% inhibitory concentration (IC50) at 72 h is over 60 µM. Further, the Ratio IC50 in series [3] was over 5.61. Also, the outcome in [4], in series [5], in series [7], in series [8] and in series [9] was Active. For the same compound, in series [6], the result was inactive. For the same compound, the viability at 10 µM came out at 30% in [10], 68.1% in series [12] and 59.8% in series [14]. The viability at 30 µM stood at 18.7% in series [11], 58.6% in series [13] and 43.5% in [15]. For the same compound, the Activity in series [16] is about 50%.

For `O=c1[nH]c(-c2ccccc2)nc2c1Cc1cc(Br)ccc1O2`, the concentration for half-maximal inhibition (IC50) in [1] turned out to be 4.5 µM. Also, the IC50 at 72 h in series [2] was over 60 µM. For the same compound, in [3], the Ratio IC50 is over 12.3. Besides, the Activity in [17] is listed as about 40%; in series [18], about 70%; in [19] it was “<=50%”; in [20] it was “<=99%”; in [29] it was “Non-Toxic”; in series [30] it was “Non-Toxic”. The Activity in series [32] was 6.3%; in [16], about 50%. For the same compound, the outcome in series [21], in [5], in [7], in [8], in series [9] and in series [22] was Active. The result in series [23], in series [24], in [25], in series [28] and in series [31] was Active. Besides, the result in series [6], in series [26] and in series [27] was inactive. In addition, the viability at 10 µM in series [10] turned out to be 40.2%; in [12], 62.4%; in series [14] it was 39.2%. Further, the viability at 30 µM came to 21.1% in [11], 52.1% in series [13] and 36.7% in [15].

For `COc1cccc(-c2nc3c(c(=O)[nH]2)Cc2cc(Cl)ccc2O3)c1`, the 50% inhibitory concentration (IC50) in series [1] is 13.1 µM. Also, the IC50 at 72 h in series [2] is 14 µM. In addition, the Ratio IC50 in series [3] came out at 0.06. The outcome in [5], in series [7], in [8] and in series [9] was Active. Besides, the result in series [6] was inactive. Also, the viability at 10 µM in [10] amounted to 54.7%; in series [12], 85.1%; in series [14], 81.5%. The viability at 30 µM worked out at 33.9% in series [11], 18.4% in series [13] and 35.4% in series [15]. Moreover, the Activity in series [16] is about 50%.

On to `CCC(CC)C1N=C2Oc3c(cccc3OC)C=C2C(=O)N1` (configuration not stated), for which the viability at 10 µM in series [10] worked out at 98.4%; in series [12], 85.8%; in [14], 85.9%. Further, the viability at 30 µM in series [11] came out at 83%; in series [13] it was 64.1%; in series [15] it was 84.8%.

`COc1ccc2c(c1)Cc1c(nc(-c3cc(OC)ccc3OC)[nH]c1=O)O2`: the viability at 10 µM in series [10] was 95.9%; in series [12] it was 60.9%; in series [14], 63.7%. Moreover, the viability at 30 µM in [11] was 96.5%; in [13], 49.7%; in [15] it was 57.8%.

Values taken from ChEMBL document CHEMBL5385961, “In vitro and in vivo evaluation of novel chromeno[2,3-d]pyrimidinones as therapeutic agents for triple negative breast cancer” (RSC Med Chem, 2024).
